Patent US20250092065A1, “2-(INDAZOL-5-YL)-6-(PIPERIDIN-4-YL)-1,7-NAPHTHYRIDINE DERIVATIVES AND RELATED COMPOUNDS AS MODULATORS FOR SPLICING NUCLEIC ACIDS AND FOR THE TREATMENT OF PROLIFERATIVE DISEASES” (REMIX THERAPEUTICS INC., priority 2022, published 2025)
Like-named read-outs stand apart in the source and are kept apart here.

Assays:
[1] = test system: HTT mRNA; experiment: RT-qPCR splicing assay, HTT mRNA canonical (CJ) and alternative (AJ) junction; format: cell-based, human; conditions: Homo sapiens
Description: (§1) Compounds described herein were used to modulate RNA transcript abundance in cells. The expression of a target mRNA was measured by detecting the formation of an exon-exon junction in the canonical transcript (CJ). A compound mediated exon-inclusion event was detected by observing an increase in formation of a new junction with an alternative exon (AJ). Real-time qPCR assays were used to detect these splicing switches and interrogate the potency of various compounds towards different target genes. A high-throughput real time quantitative PCR (RT-qPCR) assay was developed to measure these two isoforms of the mRNA (CJ and AJ) for exemplary genes, such as HTT, SMN2, and MYB, together with a control housekeeping gene, GAPDH or GUSB or PPIA, used for normalization. Briefly, the A673 or K562 cell line was treated with various compounds described herein (e.g., compounds of Formula (I)). After treatment, the levels of the HTT, MYB, or SMN2 mRNA targets were determined from each sample of cell lysate by cDNA synthesis followed by qPCR.
(§2) The A673 cell line was cultured in DMEM with 10% FBS. Cells were diluted with full growth media and plated in a 96-well plate (15,000 cells in 100 ul media per well). The plate was incubated at 37° C. with 5% CO2 for 24 hours to allow cells to adhere. An 11-point 3-fold serial dilution of the compounds was made in DMSO then diluted in media in an intermediate plate. Compounds were transferred from the intermediate plate to the cell plate with the top dose at a final concentration of 10 uM in the well. Final DMSO concentration was kept at or below 0.25%. The cell plate was returned to the incubator at 37° C. with 5% CO2 for an additional 24 hours.
(§3) The K562 cell line was cultured in IMDM with 10% FBS. For K562, cells were diluted with full growth media and plated in either a 96-well plate (50,000 cells in 50 uL media per well) or a 384-well plate (8,000-40,000 cells in 45 uL media per well). An 11-point 3-fold serial dilution of the compounds were made in DMSO then diluted in media in an intermediate plate. Compound was transferred from the intermediate plate to the cell plate with the top dose at a final concentration of 10 uM in the well. Final DMSO concentration was kept at or below 0.25%. Final volume was 100 uL for 96-well plate and 50 uL for 384-well plate. The cell plate was then placed in an incubator at 37° C. with 5% CO2 for 24 hours.
(§4) The cells were then gently washed with 50 uL-100 uL cold PBS before proceeding to addition of lysis buffer. 30 uL-50 μL of room temperature lysis buffer with DNAse I (and optionally RNAsin) was added to each well. Cells were shaken/mixed thoroughly at room temperature for 5-10 minutes for lysis to take place and then 3 uL-5 μL of room temperature stop solution was added and wells were shaken/mixed again. After 2-5 minutes, the cell lysate plate was transferred to ice for RT-qPCR reaction setup. The lysates could also be frozen at −80° C. for later use.
(§5) In some cases, a direct lysis buffer was used. An appropriate volume of 3× lysis buffer (10 mM Tris, 150 mM NaCl, 1.5%-2.5% Igepal and 0.1-1 U/uL RNAsin, pH 7.4) was directly added to either K562 or A673 cells in media and mixed by pipetting 3 times. The plates were then incubated at room temperature with shaking/rocking for 20-50 minutes to allow for lysis to take place. After this time, the cell lysate plate was transferred to ice to set up for the RT-qPCR reactions. The lysates could also be frozen at −80° C. for later use.
(§6) To set up 10 uL RT-qPCR reactions, cell lysates were transferred to 384-well qPCR plates containing the master mix according to the table below. The plates were sealed, gently vortexed, and spun down before the run. The volumes were adjusted accordingly in some instances where the reaction was carried in 20 μL. The table below summarizes the components of the RT-qPCR reactions:
(§7) The RT-qPCR reaction was performed using a QuantStudio (ThermoFisher) under the following fast cycling conditions. […]

[2] = test system: Target C; experiment: HiBiT protein abundance assay, Target C (K562 HiBiT knock-in); format: cell-based, human; conditions: HiBiT knock-in K562 cells, 24 hours, top dose 10 μM
Description: (§8) Cells were maintained in IMIDM with 10% FBS. Before the assay, cells were diluted with […] growth media (IMIDM+[…] media) and were seeded in a 384-well plate at a density of 10000 cells/well (for each cell line listed in Table 6). Each compound was prepared as a 10-point 3-fold serial dilution in DMSO with the top dose at a final concentration of 10 μM in the well. Unmodified K562 cells were added at the previously specified density with DMSO to serve as an assay baseline and positive control (PC) and DMSO only with the respective modified cell lines was added to the negative control (NC) columns. Final DMSO concentration was kept at or below 0.25%. Treated cell plates were placed in an incubator at 37° C. with […] for 24 hours. After 24 hours, 25 μL of Complete HiBit Lytic reagent was added to each well at room temperature (e.g. one plate requiring 10 mL Lytic Buffer, 100 μL LgBiT Protein, 200 μL Lytic Substrate), shaken for 5 minutes at 600 RPM, then left to sit for 10 minutes for signal to stabilize before reading on a Spark Cyto plate reader (Tecan) with a 500 ms measurement time.
(§9) To determine compound effects on protein abundance of each target in Table 6, the percent response for each respective cell line was calculated at each compound concentration as follows:
(§10) % response=100*(S−PC)(NC−PC)
(§11) For the normalized response at each concentration, a four-parameter logistical regression was fit to the data and the response was interpolated at the […] to determine a concentration for protein abundance at 50% (IC50) the untreated control.

[3] = test system: MYB mRNA; experiment: RT-qPCR splicing assay, MYB mRNA canonical (CJ) and alternative (AJ) junction; format: cell-based, human; conditions: Homo sapiens
Description: as §1, §2, §3, §4, §5, §6, §7

[4] = test system: MYB; experiment: HiBiT protein abundance assay, MYB (K562 HiBiT knock-in); format: cell-based, human; conditions: HiBiT knock-in K562 cells, 24 hours, top dose 10 μM
Description: (§12) Compounds described herein were used to screen for effects on quantitative protein abundance using a HiBit assay system (Promega). Quantitative protein abundance was determined by measuring the protein levels of HiBit-tagged protein targets expressed in cell culture via luminescence using the Nano-Glo HiBiT Lytic Detection System, which uses a split complementation assay format to reconstitute NanoBiT enzyme to generate a luminescent signal. A protein abundance assay was developed such that endogenous protein targets could be modified with the HiBiT peptide tag and their abundance could be assessed after compound treatment. Briefly, K562 cell lines containing a HiBiT-modification were treated with various compounds described herein (e.g., compounds of Formulas (I), or (II)). After treatment for 24 hours, the protein abundance of a specific target was determined by measuring luminescence.
as §8, §9, §10, §11

[5] = test system: SMN2 mRNA; experiment: RT-qPCR splicing assay, SMN2 mRNA; format: cell-based, human; conditions: Homo sapiens, canonical junction qPCR panel, Table 4; read-out: SMN2 IC50 (decrease in CJ mRNA levels)
Description: as §1, §2, §3, §4, §5, §6, §7

[6] = test system: HTT; experiment: HiBiT protein abundance assay, HTT (K562 HiBiT knock-in); format: cell-based, human; conditions: HiBiT knock-in K562 cells, 24 hours, top dose 10 μM
Description: as §12, §8, §9, §10, §11

[7] = test system: K562 cells; experiment: Cell Titer Glo 2.0 cell viability (toxicity) assay, K562; conditions: 500 cells/well, 72 hours
[8] = HTT alternative junction mRNA, RT-qPCR, read-out: HTT AJ (increase in AJ mRNA, AC50)
[9] = HTT canonical junction mRNA, RT-qPCR, read-out: HTT CJ (decrease in CJ mRNA levels, IC50)
[10] = canonical junction qPCR panel, Table 4, read-out: HTT IC50 (decrease in CJ mRNA levels)
[11] = MYB alternative junction mRNA, RT-qPCR, read-out: MYB AJ (increase in AJ mRNA, AC50)
[12] = MYB canonical junction mRNA, RT-qPCR, read-out: MYB CJ (decrease in CJ mRNA levels, IC50)
[13] = canonical junction qPCR panel, Table 4, read-out: MYB IC50 (decrease in CJ mRNA levels)
[14] = RT-qPCR, HTT alternative junction mRNA increase, read-out: HTT AJ (increase in alternative junction mRNA, AC50)
[15] = RT-qPCR, HTT canonical junction mRNA decrease, read-out: HTT CJ (decrease in canonical junction mRNA, IC50)
[16] = RT-qPCR, MYB alternative junction mRNA increase, read-out: MYB AJ (increase in alternative junction mRNA, AC50)
[17] = RT-qPCR, MYB canonical junction mRNA decrease, read-out: MYB CJ (decrease in canonical junction mRNA, IC50)

Row | IC50 [1, 9] [nM] | IC50 [1, 10] [nM] | IC50 [2] [nM] | IC50 [3, 12] [nM] | IC50 [3, 13] [nM] | IC50 [4] [nM] | IC50 [5] [nM] | IC50 [6] [nM] | IC50 [1, 15] [nM] | IC50 [3, 17] [nM] | SMILES | AC50 [1, 8] [nM] | AC50 [3, 11] [nM] | Effect of Exemplary Compounds on Cell Viability, K562 [7] | AC50 [1, 14] [nM] | AC50 [3, 16] [nM]
1 | 100 to 1000 | 100 to 1000 | 100 to 1000 | 100 to 1000 | 100 to 1000 | 100 to 1000 | 100 to 1000 | 100 to 1000 | – | – | Cc1cn2cc(-c3ccc4nc(C5CCNCC5)ccc4n3)c(O)c(C)c2n1 [Compound 151] | 100 to 1000 | 100 to 1000 | – | – | –
2 | < 100 | – | < 100 | < 100 | – | < 100 | – | < 100 | – | – | Cn1cc2cc(-c3ccc4cc(C5CCNCC5)ccc4n3)c(O)c(F)c2n1 [Compound 241] | < 100 | < 100 | A (A represents <100 nM) | – | –
3 | – | – | 100 to 1000 | – | – | < 100 | – | 100 to 1000 | – | – | CNC(=O)c1nc(-c2cc3cn(C)nc3c(C)c2O)nc2ccc(N3CCNCC3)cc12 [Compound 501, 2-(6-hydroxy-2,7-dimethylindazol-5-yl)-N-methyl-6-(piperazin-1-yl)quinazoline-4-carboxamide] | – | – | A (A represents <100 nM) | – | –
4 | – | 100 to 1000 | – | – | 1000 to 10000 | – | 100 to 1000 | – | 100 to 1000 | 1000 to 10000 | Cc1nc2c(F)cc(-c3ncc4cc(N5C[C@@H](C)N[C@@H](C)C5)ccc4n3)cn2c1F [Compound 837, 2-{3,8-difluoro-2-methylimidazo[1,2-a]pyridin-6-yl}-6-[(3R,5S)-3,5-dimethylpiperazin-1-yl]quinazoline] | – | – | C (C represents 1000-9999 nM) | 1000 to 10000 | 1000 to 10000
5 | – | > 10000 | – | – | 100 to 1000 | – | < 100 | – | > 10000 | 100 to 1000 | COc1nc(-c2ncc3cc(N4C[C@@H](C)N[C@@H](C)C4)ccc3n2)cn2cc(C)nc12 [Compound 838] | – | – | C (C represents 1000-9999 nM) | > 10000 | 100 to 1000
6 | – | > 10000 | – | – | 1000 to 10000 | – | 100 to 1000 | – | > 10000 | 1000 to 10000 | C[C@H]1CN(c2ccc3nc(-c4cc(F)c5nn(C)c(F)c5c4)ncc3c2)C[C@H](C)N1 [Compound 924] | – | – | C (C represents 1000-9999 nM) | 1000 to 10000 | 1000 to 10000
7 | – | 1000 to 10000 | – | – | 1000 to 10000 | – | 100 to 1000 | – | 1000 to 10000 | 1000 to 10000 | C[C@@H]1CN(c2ccc3nc(-c4cc(F)c5nn(C)c(F)c5c4)ncc3c2)C[C@H](C)N1 [Compound 925] | – | – | C (C represents 1000-9999 nM) | 100 to 1000 | 1000 to 10000
